Source: patent US20070173462A1, “Treatment of diseases associated with the use of antibiotics” (Optimer Pharmaceuticals, Inc., priority 2004, published 2007)
In brackets after ≈: the same amount, converted by molar mass.

Legend:
Clostridium difficile = assay: MIC, 207 clinical isolates of C. difficile; assay type: cell-based; conditions: clinical isolates, n=207
Description: Compound I was additionally tested against anaerobic clinical isolates and against aerobic bacteria. […] The compound was also active against clinical strains of Staphylococcus sp. and Enterococcus sp.

C. bolteae = assay: microbe, parasite or virus in culture; assay type: cell-based; conditions: clinical isolates, n=6
C. clostridioforme = assay: organism not typed; assay type: cell-based; conditions: clinical isolates, n=5
C. difficile = assay: microbe, parasite or virus in culture; assay type: cell-based; conditions: clinical isolates, n=23
C. glycolicum = assay: microbe, parasite or virus in culture; assay type: cell-based; conditions: clinical isolates, n=9
C. innocuum = assay: microbe, parasite or virus in culture; assay type: cell-based; conditions: clinical isolates, n=9
C. paraputrificum = assay: microbe, parasite or virus in culture; assay type: cell-based; conditions: clinical isolates, n=10
C. perfringens = assay: microbe, parasite or virus in culture; assay type: cell-based
C. ramosum = assay: microbe, parasite or virus in culture; assay type: cell-based; conditions: clinical isolates, n=10
C. sordellii = assay: microbe, parasite or virus in culture; assay type: cell-based; conditions: clinical isolates, n=5
Other Clostridium sp. = assay: microbe, parasite or virus in culture; assay type: cell-based; conditions: clinical isolates, n=11
[1] = system: Bacteroides fragilis group; assay: microbe, parasite or virus in culture; assay type: cell-based; conditions: clinical gastrointestinal isolates, n=54
Veillonella sp. = assay: microbe, parasite or virus in culture; assay type: cell-based; conditions: Veillonella; clinical gastrointestinal isolates, n=10
[2] = system: Other anaerobic Gram negative rods; assay: organism not typed; assay type: cell-based; conditions: clinical gastrointestinal isolates, n=51
[3] = system: Non-spore forming Gram positive rods; assay: organism not typed; assay type: cell-based; conditions: clinical gastrointestinal isolates, n=64
[4] = system: Anaerobic Gram positive cocci; assay: organism not typed; assay type: cell-based; conditions: clinical gastrointestinal isolates, n=49
[5] = system: Streptococcus milleri group; assay: microbe, parasite or virus in culture; assay type: cell-based; conditions: clinical gastrointestinal isolates, n=14
Streptococcus sp. = assay: microbe, parasite or virus in culture; assay type: cell-based; conditions: clinical gastrointestinal isolates, n=9
Eschericia coli = assay: organism not typed; assay type: cell-based; conditions: clinical gastrointestinal isolates, n=10
Enterobacter sp. = assay: microbe, parasite or virus in culture; assay type: cell-based; conditions: Enterobacter; clinical gastrointestinal isolates, n=20
Klebsiella sp. = assay: microbe, parasite or virus in culture; assay type: cell-based; conditions: clinical gastrointestinal isolates, n=10
Proteus mirabilis = assay: microbe, parasite or virus in culture; assay type: cell-based; conditions: clinical gastrointestinal isolates, n=10
Pseudomonas aeruginosa = assay: microbe, parasite or virus in culture; assay type: cell-based; conditions: clinical gastrointestinal isolates, n=10
Enterococcus sp. = assay: microbe, parasite or virus in culture; assay type: cell-based; conditions: clinical gastrointestinal isolates, n=22
Stephylococcus sp. = assay: organism not typed; assay type: cell-based; conditions: clinical gastrointestinal isolates, n=19
toxigenic C. difficile = assay: Hamster model of clindamycin-induced Clostridium difficile associated diarrhea/colitis; assay type: in vivo, Syrian hamsters; conditions: oral treatment for 7 days; untreated infection uniformly fatal between days two and six
Experimental: Animals were treated with two oral doses of clindamycin at 100 mg/kg. Three days after the second dose of clindamycin, they were inoculated with toxigenic C. difficile spores. […] Animals were observed daily for the presence or absence of diarrhea. Necropsies were performed on some animals that died during the experiment, and cecal contents were assayed for C. difficile toxin A. Hamsters were monitored for 20 days, and the cumulative mortality during this period was recorded (FIG. 1).

CN[C@H](CC(C)C)C(=O)N[C@H]1C(=O)N[C@@H](CC(N)=O)C(=O)N[C@H]2C(=O)N[C@H]3C(=O)N[C@H](C(=O)N[C@H](C(=O)O)c4cc(O)cc(O)c4-c4cc3ccc4O)[C@H](O)c3ccc(c(Cl)c3)Oc3cc2cc(c3O[C@@H]2O[C@H](CO)[C@@H](O)[C@H](O)[C@H]2O[C@H]2C[C@](C)(N)[C@H](O)[C@H](C)O2)Oc2ccc(cc2Cl)[C@H]1O [Vancomycin]
MIC90 (Clostridium difficile; Clostridioides difficile): 0.5 µg/mL (≈ 0.345 µM)
MIC50 (Clostridium difficile; Clostridioides difficile, read-out: MIC50): 0.5 µg/mL (≈ 0.345 µM)
Range (MIC) (Clostridium difficile): 0.0156-0.5
MIC50 (C. bolteae; Enterocloster bolteae): 16 µg/mL (≈ 11 µM)
MIC90 (C. bolteae; Enterocloster bolteae): 16 µg/mL (≈ 11 µM)
Range (MIC) (C. bolteae): 1 to 16 µg/mL
MIC50 (C. clostridioforme): 1 µg/mL (≈ 0.69 µM)
MIC90 (C. clostridioforme): 8 µg/mL (≈ 5.52 µM)
Range (MIC) (C. clostridioforme): 1 to 8 µg/mL
MIC50 (C. difficile; Clostridioides difficile): 1 µg/mL (≈ 0.69 µM)
MIC90 (C. difficile; Clostridioides difficile): 2 µg/mL (≈ 1.38 µM)
Range (MIC) (C. difficile): 0.5-4^ μg/mL
MIC50 (C. glycolicum; Terrisporobacter glycolicus): 1 µg/mL (≈ 0.69 µM)
MIC90 (C. glycolicum; Terrisporobacter glycolicus): 1 µg/mL (≈ 0.69 µM)
Range (MIC) (C. glycolicum): 0.5-1^ μg/mL
MIC50 (C. innocuum; [Clostridium] innocuum): 16 µg/mL (≈ 11 µM)
MIC90 (C. innocuum; [Clostridium] innocuum): 16 µg/mL (≈ 11 µM)
Range (MIC) (C. innocuum): 8 to 16 µg/mL
MIC50 (C. paraputrificum; Clostridium paraputrificum): 2 µg/mL (≈ 1.38 µM)
MIC90 (C. paraputrificum; Clostridium paraputrificum): 2 µg/mL (≈ 1.38 µM)
Range (MIC) (C. paraputrificum): 1 to 2 µg/mL
Range (MIC) (C. perfringens): 0.5-1^ μg/mL
MIC50 (C. perfringens; Clostridium perfringens): 1 µg/mL (≈ 0.69 µM)
MIC90 (C. perfringens; Clostridium perfringens): 1 µg/mL (≈ 0.69 µM)
MIC50 (C. ramosum; Thomasclavelia ramosa): 4 µg/mL (≈ 2.76 µM)
MIC90 (C. ramosum; Thomasclavelia ramosa): 8 µg/mL (≈ 5.52 µM)
Range (MIC) (C. ramosum): 4 to 8 µg/mL
MIC50 (C. sordellii; Paraclostridium sordellii): 1 µg/mL (≈ 0.69 µM)
MIC90 (C. sordellii; Paraclostridium sordellii): 1 µg/mL (≈ 0.69 µM)
Range (MIC) (C. sordellii): 1 µg/mL
MIC50 (Other Clostridium sp.; Clostridium): 1 µg/mL (≈ 0.69 µM)
MIC90 (Other Clostridium sp.; Clostridium): 16 µg/mL (≈ 11 µM)
Range (MIC) (Other Clostridium sp.): 1 to 64 µg/mL
MIC50 ([1]; Bacteroides fragilis): 64 µg/mL (≈ 44.2 µM)
MIC90 ([1]; Bacteroides fragilis): 128 µg/mL (≈ 88.3 µM)
Range (MIC) [1]: 16 to 256 µg/mL
MIC50 (Veillonella sp.): 512 µg/mL (≈ 353 µM)
MIC90 (Veillonella sp.): 512 µg/mL (≈ 353 µM)
MIC50 [2]: 512 µg/mL (≈ 353 µM)
MIC90 [2]: > 1020 µg/mL
MIC50 [3]: 128 µg/mL (≈ 88.3 µM)
MIC90 [3]: > 1020 µg/mL
MIC50 [4]: 1 µg/mL (≈ 0.69 µM)
MIC90 [4]: 8 µg/mL (≈ 5.52 µM)
MIC50 ([5]; Streptococcus milleri): 1 µg/mL (≈ 0.69 µM)
MIC90 ([5]; Streptococcus milleri): 1 µg/mL (≈ 0.69 µM)
Range (MIC) [5]: 1 µg/mL
MIC50 (Streptococcus sp.; Streptococcus): 0.5 µg/mL (≈ 0.345 µM)
MIC90 (Streptococcus sp.; Streptococcus): 1 µg/mL (≈ 0.69 µM)
Range (MIC) (Streptococcus sp.): 0.5 to 1 µg/mL
MIC50 (Eschericia coli): 512 µg/mL (≈ 353 µM)
MIC90 (Eschericia coli): > 1020 µg/mL
MIC50 (Enterobacter sp.): > 1020 µg/mL
MIC90 (Enterobacter sp.): > 1020 µg/mL
MIC50 (Klebsiella sp.; Klebsiella): > 1020 µg/mL
MIC90 (Klebsiella sp.; Klebsiella): > 1020 µg/mL
Range (MIC) (Klebsiella sp.): >1024 µg/mL
MIC50 (Proteus mirabilis; Proteus mirabilis): > 1020 µg/mL
MIC90 (Proteus mirabilis; Proteus mirabilis): > 1020 µg/mL
Range (MIC) (Proteus mirabilis): >1024 µg/mL
MIC50 (Pseudomonas aeruginosa): > 1020 µg/mL
MIC90 (Pseudomonas aeruginosa): > 1020 µg/mL
MIC50 (Enterococcus sp.; Enterococcus): 1 µg/mL (≈ 0.69 µM)
MIC90 (Enterococcus sp.; Enterococcus): 4 µg/mL (≈ 2.76 µM)
Range (MIC) (Enterococcus sp.): 0.5-4 ^ μg/mL
MIC50 (Stephylococcus sp.): 2 µg/mL (≈ 1.38 µM)
MIC90 (Stephylococcus sp.): 4 µg/mL (≈ 2.76 µM)
Range (MIC) (Stephylococcus sp.): 1 to 4 µg/mL
protection from infection (cumulative mortality over 20 days) (toxigenic C. difficile): protected the animals from infection
